Patent US10766888B1, “HMOX1 inducers” (Mitobridge Inc., priority 2019, dated 2020)
“Also recorded” adds a separate entry of the source.

What was measured:
Human BACH1 = target: T1, Human BACH1 (Homo sapiens, UniProt O14867); test: Microscale thermophoresis (MST) assay / Bach 1 binding assay; conditions: 10 nM fluorescently labeled BACH1(aa179-736), 25° C.
T1 construct: 10×HIS-GP-BACH1(aa179-736)-Thrombin-FLAG; 10xHis (N); GP linker (Gly-Pro) (N); Thrombin cleavage site (C); FLAG (C); host or cells: Sf9 insect cells
T1 sequence (O14867 179-736): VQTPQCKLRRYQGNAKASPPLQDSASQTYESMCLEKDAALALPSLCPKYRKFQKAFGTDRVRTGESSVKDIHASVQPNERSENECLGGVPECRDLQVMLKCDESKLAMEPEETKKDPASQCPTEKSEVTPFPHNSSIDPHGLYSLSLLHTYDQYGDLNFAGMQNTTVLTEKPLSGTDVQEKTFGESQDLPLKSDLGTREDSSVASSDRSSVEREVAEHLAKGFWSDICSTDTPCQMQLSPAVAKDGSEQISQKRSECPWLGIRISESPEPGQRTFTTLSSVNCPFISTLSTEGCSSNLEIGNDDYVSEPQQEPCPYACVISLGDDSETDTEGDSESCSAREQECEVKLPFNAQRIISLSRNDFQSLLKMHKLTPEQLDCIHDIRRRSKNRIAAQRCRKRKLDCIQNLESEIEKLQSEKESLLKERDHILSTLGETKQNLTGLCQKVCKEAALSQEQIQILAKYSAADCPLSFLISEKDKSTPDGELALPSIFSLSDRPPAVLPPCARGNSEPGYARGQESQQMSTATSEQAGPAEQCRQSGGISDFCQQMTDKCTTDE
Procedure: Example 146. Microscale Thermophoresis (MST) Assay/Bach 1 Binding Assay
Outline of Protein Expression/Production
Human BACH1 (construct-ID: 10×HIS-GP-BACH1(aa179-736)-Thrombin-FLAG) was expressed in Sf9 insect cells. Protein purification was performed using affinity chromatography, followed by size-exclusion chromatography. Quality of resulting protein was judged using SDS-PAGE analysis.
The MST technology is based on measurement of protein movement along a temperature gradient. Thereby, fluorescently labeled protein is loaded into capillaries, where an infrared laser heats a small volume. Before and during heating, fluorescent intensity is measured at the site of irradiation and the loss of fluorescence in the IR laser focus is quantified.
Two major factors contribute to change of fluorescence signal. First of all, the so-called TRIC (Temperature Related Intensity Change) effect is caused by the temperature-dependency of fluorophore's quantum yield. Herein, the extent of the temperature dependence depends on the chemical environment, which may be changed by the binding of a ligand (e.g. compound, peptide) to the target. Moreover, Kd value between ligand and target can depend on temperature. Second, thermophoresis, which is defined as movement of fluorescent molecules along temperature gradient, is a major contributor to change of fluorescence. Hereby, protein movement along the gradient depends on hydrodynamic radius, charge and hydration shell. These properties can change upon association of the labeled protein with another species, e.g. compound. Thereby, MST detects the differences in protein movement with increasing ligand concentration: from this, the fraction of ligand bound protein and a Kd value can be determined.
For Kd determination of compounds binding BACH1, the following protocol was applied: 10×HIS-GP-BACH1(aa179-736)-Thrombin-FLAG (expressed and purified at Proteros) was fluorescently labeled via its lysine-residues (2nd gen NHS-NT.647 dye).
Experiments were performed using the experimental device Monolith NT.115 Pico, NanoTemper Technologies, with MST power set to medium and excitation power set to 2% at a reaction temperature of 25° C.
10 nM fluorescently labeled BACH1 was applied to reaction buffer containing 50 mM HEPES pH 8.0, 100 mM NaCl, 5% glycerol, 0.05% Tween20 and 1 mM DTT in a reaction volume of 8 μL using Monolith NT.115 Premium Capillaries. Compounds were applied at a maximal concentration of 103 μM with 15 subsequent factor 2 dilutions.

HbSS Townes sickle mice = test: F-cells (HbF-containing red blood cells) in HbSS Townes sickle mice; assay type: in vivo
Excerpt: Blood smears were made using heparinized whole blood for F-cells staining. Stained F-cells and total red blood cells were counted on the blood smears in four fields; mean=77 red blood cells/field. F-cells are expressed as a percentage of total red blood cells. Values are means+SD. One-Way ANOVA with Dunnett's Multiple comparison to Vehicle **p≤0.01, ***p≤0.001, ****p≤0.0001
Dosing Scheme of HMOX Inducers to HbSS Townes Sickle Mice
HbSS Townes sickle mice were oral gavaged once daily with Vehicle or the compound of Example 17 listed below for 8 days. To minimize experimental inconsistency, fresh formulation was prepared every day and vortexed prior to drawing test article into syringe for each dosing, and dosing was performed by the same individual throughout the day. The last-day dose was administered by oral gavage 4 hours prior to hemin infusion described below. • 1. […]
F-cells were stained on whole blood smears by the Kleihauer-Betke method using a fetal cell stain kit (Simmler) according to the manufacturer's instructions. F-cells and total erythrocytes were counted in 4 separate microscopic fields at 100× magnification for each mouse. The F-cells were expressed as a percentage of total erythrocytes (i.e., red blood cells). […]

[1] = system: Primary human pulmonary artery endothelial cells (HPAEC); test: Glutathione (GSH) levels in primary human endothelial cells under hemin stress; assay type: cell-based
Procedure: Example 149. Glutathione (GSH) Levels in Primary Human Endothelial Cells
Primary human pulmonary artery endothelial cells (HPAEC) (Lonza # CC-2530) cultured in endothelial cell growth medium-2 (EGM2 media, Lonza # CC-3162) were seeded in white 96-well plate (Corning® #3610) at 12.5 k cells per well and placed at 37° C. in 5% CO2. 18-24 hr post seeding, cells were treated with the compound of Example 17 via media change. 24 hr post treatment with the compound, cells were treated using a freshly prepared hemin stock (Sigma-Aldrich #51280 in 0.1N NaOH) alone or with the compound of Example 17. […] Media was aspirated off and GSH-Glo™ Glutathione Assay (Promega # V6911) was run following the manufacturer's protocol. White bottom plate seal (PerkinElmer #6005199) was used during read. Analysis was done using Softmax Pro.

| Compound | Kd (Human BACH1) | percent F-cells compared with vehicle (in words) (HbSS Townes sickle mice; 10, 25, 50 mg/kg PO once daily for 8 days) | percent F-cells (of total red blood cells) (HbSS Townes sickle mice; all doses tested (10, 25, 50 mg/kg PO, 8 days)) | GSH levels / protection from hemin mediated oxidative stress (in words) ([1]; 24 hr pre-incubation, 30 min hemin stress) | toxicity by visual inspection of cells ([1]; after 30 min of hemin stress) |
| --- | --- | --- | --- | --- | --- |
| Cn1c(Nc2nc3ccccc3o2)nc2cc(C(=O)NCCOCCO)ccc21 [Example 17, 2-(benzo[d]oxazol-2-ylamino)-N-(2-(2-hydroxyethoxy)ethyl)-1-methyl-1H-benzo[d]imidazole-5-carboxamide] | 250 nM | significantly increased; also recorded: more than doubled; also recorded: did not appear to be dose responsive; also recorded: increase | 55-70% | protects these cells from hemin mediated oxidative stress | no toxicity |
| COCCNC(=O)c1ccc2c(c1)nc(Nc1nc3ccc(OCCOC)cc3o1)n2C [Example 56, 2-((6-(2-methoxyethoxy)benzo[d]oxazol-2-yl)amino)-N-(2-methoxyethyl)-1-methyl-1H-benzo[d]imidazole-5-carboxamide] | 250 nM | – | – | – | – |
